Experimental data: patent US4028351A, “Method for the preparation of derivatives of spiro (4,5)-decane and derivatives thus obtained” (Buskine S.A., priority 1971, dated 1977)

Legend:
LD50 (rat) i.p. = conditions: in vivo, ip
Histamine broncho-spasm = assay: Broncho-spasm antagonist activity (Konzett and Roessler technique), histamine; type: in vivo, guinea pigs; conditions: Cavia porcellus, iv, guinea pig, i.v., read-out: Broncho-spasm 50% approx. inhibiting dose, Histamine
Experimental: (§1) c) the experiments on the antagonist activity against the bronochospasm
(§2) were carried out on guinea pigs, according to the technique taught by
(§3) Konzett and Roessler (Arch. Exper. Pathol. Pharm., 71, (1940), 195).

[1] = Heated plate test (mouse), analgesic activity; type: in vivo
Description: a) the data of analgesic activity are expressed as the variation % of the
stimulation threshold in the mouse;

kaolin induced oedema = assay: Kaolin induced oedema (rat), anti-inflammatory activity; type: in vivo, Wistar rat
Description: b) the data of anti-inflammatory activity are expressed as the volume
variation of the kaolin induced oedema in the Wistar rat;

Serotonine broncho-spasm = assay: Broncho-spasm antagonist activity (Konzett and Roessler technique), serotonine; type: in vivo, guinea pigs; conditions: Cavia porcellus, iv, guinea pig, i.v., read-out: Broncho-spasm 50% approx. inhibiting dose, Serotonine
Experimental: as §1, §2, §3

[2] = tested on: Acetylcholine broncho-spasm; assay: Broncho-spasm antagonist activity (Konzett and Roessler technique), acetylcholine; type: in vivo, guinea pigs; conditions: Cavia porcellus, iv, guinea pig, i.v., read-out: Broncho-spasm 50% approx. inhibiting dose, Acetylcholine
Experimental: as §1, §2, §3

[3] = total dose 310 mg/kg per os (48 hours)
[4] = total dose 440 mg/kg per os (48 hours)

## O=C1NCC2(CCN(CCc3ccc4c(c3)OCO4)CC2)O1
LD50 (rat) i.p.
  LD50: 235 mg/kg
Histamine broncho-spasm
  ED50: 0.2 mg/kg
[1]; 40 mg/kg i.p.
  Heated plate test, % increase of threshold value: 80%
Kaolin induced oedema; [3]
  Kaolin induced oedema, volume variation %: 39.5%
Serotonine broncho-spasm
  ED50: > 2.5 mg/kg
[2]
  ED50: > 2.5 mg/kg

## O=C1NCC2(CCN(CCc3ccc(F)cc3)CC2)O1
LD50 (rat) i.p.
  LD50: 282 mg/kg
Histamine broncho-spasm
  ED50: 0.2 mg/kg
[1]; 10 mg/kg i.p.
  Heated plate test, % increase of threshold value: 41.7%
Kaolin induced oedema; total dose 70 mg/kg per os (48 hours)
  Kaolin induced oedema, volume variation %: 19.4%
Serotonine broncho-spasm
  ED50: 0.5 mg/kg
[2]
  ED50: 2 mg/kg

## O=C1NCC2(CCN(CCOc3ccccc3)CC2)O1
LD50 (rat) i.p.
  LD50: 344 mg/kg
Histamine broncho-spasm
  ED50: > 0.5 mg/kg
[1]; 100 mg/kg i.p.
  Heated plate test, % increase of threshold value: 49%
Kaolin induced oedema; [4]
  Kaolin induced oedema, volume variation %: 26.3%
Serotonine broncho-spasm
  ED50: > 0.5 mg/kg
[2]
  ED50: > 0.5 mg/kg

## O=C1NCC2(CCN(C(c3ccccc3)c3ccccc3)CC2)O1
LD50 (rat) i.p.
  LD50: 346 mg/kg
Histamine broncho-spasm
  ED50: > 0.5 mg/kg
[1]; 100 mg/kg i.p.
  Heated plate test, % increase of threshold value: 119%
Kaolin induced oedema; [4]
  Kaolin induced oedema, volume variation %: 4.6%
Serotonine broncho-spasm
  ED50: > 0.5 mg/kg
[2]
  ED50: > 0.5 mg/kg

## O=C1NCC2(CCN(CCc3cccc(C(F)(F)F)c3)CC2)O1
LD50 (rat) i.p.
  LD50: 344 mg/kg
Histamine broncho-spasm
  ED50: 0.5 mg/kg
[1]; 50 mg/kg i.p.
  Heated plate test, % increase of threshold value: 45.6%
Kaolin induced oedema; [3]
  Kaolin induced oedema, volume variation %: 10%
Serotonine broncho-spasm
  ED50: > 0.5 mg/kg
[2]
  ED50: > 0.5 mg/kg

## O=C1NCC2(CCN(Cc3ccccc3)CC2)O1
LD50 (rat) i.p.
  LD50: 319 mg/kg
Histamine broncho-spasm
  ED50: > 0.5 mg/kg
[1]; 100 mg/kg i.p.
  Heated plate test, % increase of threshold value: 93%
Kaolin induced oedema; total dose 340 mg/kg per os (48 hours)
  Kaolin induced oedema, volume variation %: 9.4%
Serotonine broncho-spasm
  ED50: > 0.5 mg/kg
[2]
  ED50: > 0.5 mg/kg

## O=C1NCC2(CCN(CCc3ccccc3)CC2)O1
LD50 (rat) i.p.
  LD50: 230 mg/kg
Histamine broncho-spasm
  ED50: 0.5 mg/kg
[1]; 25 mg/kg i.p.
  Heated plate test, % increase of threshold value: 63.4%
Kaolin induced oedema; total dose 190 mg/kg per os (48 hours)
  Kaolin induced oedema, volume variation %: 16.1%
Serotonine broncho-spasm
  ED50: 0.2 mg/kg
[2]
  ED50: 2 mg/kg
